This is an account of results in patent publication US4414224A (SmithKline Beckman Corporation, priority 1982, dated 1983).

The subject of one test is normal anesthetized dog. Nature of the test: Intravenous infusion in the normal anesthetized dog (MAP, RBF, RVR, HR). The format is in vivo. Conditions: i.v. infusion.
A further test relates to alpha1. The test is described as follows: Isolated perfused rabbit ear artery preparation, vasoconstriction indicative of alpha1 activity. The format is cell-based. The text has this:
The isolated perfused rabbit ear artery preparation described by J. P. Hiebel and R. G. Pendleton, Arch.

The mark [1] stands for this setting: 3 μg/kg/min (base), dopamine run in each test for comparison.
Setting [2] is: 0.3 μg/kg/min (base), A in 10% dimethylsulfoxide in 0.9% saline.

Consider `CCCN(CCC)CCc1ccc(OC)c2c1CC(=O)N2.Cl` [B, 4-(2-di-n-propylaminoethyl)-7-methoxy-2(3H)-indolone hydrochloride], for which, in the test with normal anesthetized dog (setting [1]), the “% Change HR (heart rate)” value is listed as -4.5%, the “% Change MAP (mean arterial blood pressure)” value (from here on “% Change MAP”) is reported as -3.6%, the “% Change RBF (mean renal blood flow)” value is listed as -11.6% and the “% Change RVR (renal vascular resistance)” value is on record as “+8.9%”. For the same molecule, in the test on normal anesthetized dog (30 μg/kg/min (base)), the “% Change HR (heart rate)” value was -8.3%, the “% Change MAP” value was -7.8%, the “% Change RBF (mean renal blood flow)” value is on record as “+2.8%” and the “% Change RVR (renal vascular resistance)” value is -9.5%. In addition, in the test with normal anesthetized dog (300 μg/kg/min (base)), the “% Change HR (heart rate)” value was -7.8%, the “% Change MAP” value is reported as “+0.1%”, the “% Change RBF (mean renal blood flow)” value is “+0.7%” and the “% Change RVR (renal vascular resistance)” value is given as “+1.6%”.
For `CCCN(CCC)CCc1ccc(O)c2c1CC(=O)N2` [4-(2-di-n-propylaminoethyl)-7-hydroxy-2(3H)-indolone], in the test with alpha1, the “concentration at which vasoconstriction indicative of alpha1 activity was observed” value is on record as “about 1000 nM”.
As for `COc1ccc(CCN)c2c1NC(=O)C2.Cl` [D, 4-(2-aminoethyl)-7-methoxy-2(3H)-indolone hydrochloride], in the test with normal anesthetized dog (setting [1]), the “% Change HR (heart rate)” value is -1.5%, the “% Change MAP” value is given as -0.7%, the “% Change RBF (mean renal blood flow)” value is on record as “+6.7%” and the “% Change RVR (renal vascular resistance)” value is on record as -7.0%. Also, in the test with normal anesthetized dog (30 μg/kg/min (base)), the “% Change HR (heart rate)” value is listed as -2.8%, the “% Change MAP” value is on record as -2.3%, the “% Change RBF (mean renal blood flow)” value is reported as “+7.5%” and the “% Change RVR (renal vascular resistance)” value is on record as -9.2%. Also, in the test with normal anesthetized dog (300 μg/kg/min (base)), the “% Change HR (heart rate)” value is -1.6%, the “% Change MAP” value is listed as -9.8%, the “% Change RBF (mean renal blood flow)” value is recorded as “+2.1%” and the “% Change RVR (renal vascular resistance)” value is -9.4%.
For the molecule `Br.CCCN(CCC)CCc1ccc(O)c2c1CC(=O)N2` [A, 4-(2-di-n-propylaminoethyl)-7-hydroxy-2(3H)-indolone hydrobromide], in the test with normal anesthetized dog (setting [2]), the “% Change HR (heart rate)” value is on record as “+3.6%”, the “% Change MAP” value was -5.1%, the “% Change RBF (mean renal blood flow)” value is “+4.6%” and the “% Change RVR (renal vascular resistance)” value is given as -0.5%. Moreover, in the test on normal anesthetized dog (setting [1]), the “% Change HR (heart rate)” value is -11.2%, the “% Change MAP” value is on record as -24.7%, the “% Change RBF (mean renal blood flow)” value was “+24.7%” and the “% Change RVR (renal vascular resistance)” value is -39.1%. Further, in the test on normal anesthetized dog (30 μg/kg/min (base)), the “% Change HR (heart rate)” value was -6.9%, the “% Change MAP” value was “+28.4%”, the “% Change RBF (mean renal blood flow)” value was -19.4% and the “% Change RVR (renal vascular resistance)” value is “+59.2%”.
In the case of `Br.NCCc1ccc(O)c2c1CC(=O)N2` [C, 4-(2-aminoethyl)-7-hydroxy-2(3H)-indolone hydrobromide], in the test on normal anesthetized dog (setting [1]), the “% Change HR (heart rate)” value was -2.9%, the “% Change MAP” value is -10.6%, the “% Change RBF (mean renal blood flow)” value is given as -12.7% and the “% Change RVR (renal vascular resistance)” value was “+4.1%”. In the test on normal anesthetized dog (30 μg/kg/min (base)), the “% Change HR (heart rate)” value is -2.9%, the “% Change MAP” value is -16.1%, the “% Change RBF (mean renal blood flow)” value is given as -12.3% and the “% Change RVR (renal vascular resistance)” value is -2.7%. Also, in the test with normal anesthetized dog (300 μg/kg/min (base)), the “% Change HR (heart rate)” value is -15.8%, the “% Change MAP” value is given as “+62.6%”, the “% Change RBF (mean renal blood flow)” value is -32.7% and the “% Change RVR (renal vascular resistance)” value is on record as “+167.0%”.
